Source: PMC11940238, “Ru(II) Complexes with 3,4-Dimethylphenylhydrazine: Exploring In Vitro Anticancer Activity and Protein Affinities” (Biomolecules, 2025)

Tests used:
[1] = system: MMP9; assay: Gelatin gel electrophoresis of supernatants, MMP9 activity, MDA-MB-231; format: cell-based, human
Method: (§1) MDA-MB-231 and MIA PaCa-2 cells were treated with 50 µM of complex 2 or 75 µM and 100 µM of complex 1, respectively. The treatments lasted 24 and 48 h. Untreated cells were used as control. The supernatants were collected for further analysis. Electrophoresis in a polyacrylamide gel with an add-on of 0.1% SDS and 0.2% gelatin was used to measure metalloproteinase 2 and 9 activity (MMP2 and MMP9).
(§2) The gels were imaged with a ChemiDoc Imaging System (Bio-Rad Laboratories, Hercules, CA, USA) and estimated by densitometric scanning using the Image Lab (Bio-Rad Laboratories, Inc. Version 6.0.0.25) software tool.

[2] = system: MMP2; assay: Gelatin gel electrophoresis of supernatants, MMP2 activity, MDA-MB-231; format: cell-based, human; settings: MDA-MB-231, 75 µM complex 1 or 50 µM complex 2, 24 and 48 h treatments
Method: as §1, §2

[3] = biological target: T1, HSA (Homo sapiens, UniProt P02768); assay: Spectrofluorimetric titration (fluorescence quenching) of HSA with the complexes; format: binding; settings: for ΔHb / ΔSb: van't Hoff plot, 300-310 K
T1 sequence (P02768 25-609): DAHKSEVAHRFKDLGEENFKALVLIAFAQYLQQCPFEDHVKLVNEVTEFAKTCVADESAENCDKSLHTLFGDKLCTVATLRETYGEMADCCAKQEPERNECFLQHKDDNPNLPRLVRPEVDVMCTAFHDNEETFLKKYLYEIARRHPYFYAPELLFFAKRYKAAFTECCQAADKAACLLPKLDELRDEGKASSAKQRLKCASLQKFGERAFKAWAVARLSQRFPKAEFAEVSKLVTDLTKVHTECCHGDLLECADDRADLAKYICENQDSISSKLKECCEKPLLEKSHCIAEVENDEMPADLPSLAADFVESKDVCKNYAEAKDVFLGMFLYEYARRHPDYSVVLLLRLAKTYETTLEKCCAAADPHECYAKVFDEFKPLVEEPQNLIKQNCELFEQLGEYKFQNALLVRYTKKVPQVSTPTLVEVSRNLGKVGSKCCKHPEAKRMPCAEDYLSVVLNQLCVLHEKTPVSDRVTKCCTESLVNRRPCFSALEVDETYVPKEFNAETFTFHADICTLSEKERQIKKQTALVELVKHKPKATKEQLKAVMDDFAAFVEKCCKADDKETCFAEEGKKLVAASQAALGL
Method: The excitation wavelength was set to 285 nm, while the emission spectrum was recorded in the interval from 315 nm to 600 nm. […] solution (phosphate buffer pH = 7.6) with a concentration of 5 × 10^−6 M was titrated (5–10 times) with a complex solutions (5 × 10^−4 M). Before each addition of complexes 1 and 2 to the HSA solutions, the cuvette was thermostated for 2 min for each tested temperature, and then the fluorescence quenching spectra of proteins were recorded. Recordings started 2 min after adding complex 1/complex 2 solutions to reach the desired temperature. The data were analyzed according to the double-log Stern-Volmer (SV) equation: (1) log(I0−IQ/IQ)=logKb+nlog[Q] where Kb and n are the binding constants and the number of binding sites per HSA molecule. The binding constants were determined from the intercept values on the SV diagrams and the double log SV equation (Table 1). These values are further used for van’t Hoff plots, lnKb = f(T^−1), from which the Gibbs free energy, enthalpy, and entropy changes were determined.

[4] = system: MMP2; assay: Gelatin gel electrophoresis of supernatants, MMP2 activity, MIA PaCa-2; format: cell-based, human; settings: MIA PaCa-2, 100 µM complex 1 or 50 µM complex 2, 24 and 48 h treatments
Method: as §1, §2

[5] = system: MIA PaCa-2 cells; assay: MTT test; format: cell-based, human; settings: MIA PaCa-2, 24 h treatment
Method: (§3) The human breast cancer cell line (MDA-MB-231) and human pancreatic cancer cell line (MIA PaCa-2) were obtained from the American Type Culture Collection (ATCC). The cells were cultured in 25 cm^2 flasks with DMEM supplemented with 100 U/mL penicillin-streptomycin, 10% FBS, at 37 °C with 5% CO2 in a humidified incubator.
(§4) Cells were harvested when they reached 85–90% confluent. 100 µL of cell suspension (15.000 cells per well) was poured into the wells of the 96-well plate and incubated overnight to allow the cells to attach to the well. The cells were treated with 1 or 2 in concentrations ranging from 0.19 to 200 µM. Untreated cells were used as control. After 24 h, 10 µL MTT (5 mg/mL) was added to each well. Cultures were incubated for […] at 37 °C. The reduction process was stopped by adding 100 µL/well of 10% SDS acidified with 1N HCl. Dissolution of the resulting blue color was continued overnight in the incubator at 37 °C. All treatments were done in replicates of three. The absorbance was read at 540 nm on an ELISA reader (RT-6100, Rayto, Shenzhen, China). The ratio of absorbances of treated to untreated living cells was used to measure viability. Cytotoxic activity was recorded as IC50, which is the concentration necessary to reduce the absorbance of treated cells by 50% compared to the control.

[6] = system: MDA-MB-231 cells; assay: MTT test; format: cell-based, human; settings: MDA-MB-231, 24 h treatment
Method: as §3, §4

[7] = Stability in PBS followed by UV-VIS spectroscopy; format: physicochemical; settings: 1 × 10^−4 M in PBS, 0-24 h
From the text: Ligand precursor 3,4-dimethylphenylhydrazine hydrochloride (BLDPharm), [{RuCl2(η^6-p-cymene)}2] (Carbolutions), LiOH × H2O (Sigma Aldrich, Darmstadt, Germany), methanol (Carl Roth), diethyl ether (Carl Roth) and 2-propanol (Carl Roth) were obtained commercially and used without further purification. Deuterated solvents, CDCl3 and MeOD, were procured from Deuterosolvents GmbH and used for NMR spectroscopy. NMR spectra of the synthesized complexes, including ^1H (400.23 MHz) and ^13C NMR (100.1 MHz), were recorded using a Bruker Avance™ 400 MHz Spectrometer. Elemental analysis was performed and the Institute of Chemistry, Chemnitz University of Technology (Heraeus VARIO EL oven). The stability of compounds was examined by UV-VIS spectroscopy on a Thermo Scientific UV-VIS Spectrometer (Thermo Fisher Scientific, Waltham, MA, USA) between 800 and 200 nm. For this experiment, 1 × 10^−2 M solutions of complexes in DMSO were prepared and further diluted to 1 × 10^−4 M solutions in PBS. The measurements were repeated for 24 h.

[8] = biological target: T1, HSA; assay: Spin-probing EPR: displacement of 16-DS from preformed HSA/16-DS; format: binding; settings: for Unbound Component Contribution (XUB, %): 50 µM HSA, 250 µM 16-DS, 200 µM complex ([HSA]:[Ru-complex] 1:4), 1.2% v/v DMSO, phosphate buffer pH 7.4, EPR spectral simulation
Method: In order to investigate the nature of the interaction between the two Ru-complexes and human serum albumin (HSA), spin-probing/electron paramagnetic resonance methodology was used additionally. Namely, as HSA can bind up to seven molecules of long-chain fatty acids, and their doxyl derivatives, which are EPR-active compounds, HSA was first incubated with the fivefold concentration of 16-doxyl-stearic acid (16-DS, Sigma-Aldrich), and subsequently the aliquots of the Ru-complexes solutions were added to the HSA/16-DS mixture. For this experiment, HSA was dissolved in the 100 mM phosphate buffer, pH 7.4, and its concentration was 0.2 mM. The ethanol solution of 16-DS was transferred to the bottom of the test tube, and ethanol was dried in the Eppendorf Concentrator plus vacuum centrifuge. After the ethanol completely evaporated, an appropriate amount of HSA solution was added to the tube containing 16-DS. The concentration of the 16-DS in HSA/16-DS solution was 1 mM, i.e., [HSA]:[16-DS] molar ratio was 1:5. This stock solution was incubated until the full binding of 16-DS to HSA was achieved. The incubation involved occasional gentle vortexing and thermostating at 37 °C in a water bath.
In the next step, Ru(II) complexes were dissolved in DMSO and diluted using 100 mM phosphate buffer, pH 7.4. The concentrations of both Ru(II) complexes stock solutions were 266.67 µM. Small volumes of these solutions were added to HSA/16-DS preparation and diluted with the phosphate buffer. Afterward, the samples were incubated for 30 min before the EPR measurement. […]
The samples prepared as previously described were aspirated into the capillary gas-permeable Teflon tubes (Zeus Industries, Inc., Orangeburg, SC, USA) and placed into the resonator cavity of the X-band EPR spectrometer Bruker Elexsys II E500. […] The acquired EPR spectra were analyzed using the Bruker Xepr software and simulated by SimLabel, a graphical user interface software that is an extension of EasySpin [64], the EPR simulation package (the version of EasySpin used was 6.0.6). […]

[9] = system: HS-5 cells; assay: MTT test on healthy cells; format: cell-based; settings: same concentrations as for cancer cells, 24 h
Method: as §4

[10] = system: MIA PaCa-2 cells; assay: Malondialdehyde and protein carbonyl concentrations in the medium; format: cell-based, human; settings: MIA PaCa-2, 24 h, 100 µM complex 1 or 50 µM complex 2, vs control
Method: (§5) MDA-MB-231 and MIA PaCa-2 cells were treated with 50 µM of complex 2 or 75 µM and 100 µM of complex 1, respectively, for 24 h. Untreated cells were used as control. The supernatants were collected and used for further analyses. Lipid peroxidation was estimated by a spectrophotometric assay based on the absorption maximum of the malondialdehyde (MDA) complex with thiobarbituric acid in an acidic environment and high temperature. 1,1,3,3-Tetramethoxypropane was used as standard. Absorbance was read on the ELISA reader using a 540 nm filter. The concentration was determined using a standard curve. The determination of protein carbonyl (PC) concentration was based on the method of Levin and associates. Absorbance was read on the ELISA reader using a 375 nm filter.

[11] = system: MDA-MB-231 cells; assay: as above; format: cell-based, human; settings: MDA-MB-231, 24 h, 75 µM complex 1 or 50 µM complex 2, vs untreated cells
Method: as §5

[12] = system: MMP9; assay: Gelatin gel electrophoresis of supernatants, MMP9 activity, MIA PaCa-2; format: cell-based, human
Method: as §1, §2

[13] = system: MDA-MB-231 cells; assay: Examination of the cell cycle; format: cell-based, human; settings: MDA-MB-231, 24 h, p < 0.01
[14] = system: MIA PaCa-2 cells; assay: Examination of the cell cycle; format: cell-based, human; settings: MIA PaCa-2, 24 h
[15] = system: Bovine Serum Albumin (BSA); settings: cited from earlier work

Compound	MMP2 activity [2]	n (number of binding sites) ([3]; 300 K)	ΔGb ([3]; 300 K)	n (number of binding sites) ([3]; 305 K)	ΔGb ([3]; 305 K)	n (number of binding sites) ([3]; 310 K)	ΔGb ([3]; 310 K)	ΔHb [3]	ΔSb [3]	MMP2 activity [4]	IC50 [5]	IC50 [6]	time-dependent UV-VIS spectra (stability) [7]	Unbound Component Contribution (XUB, %) [8]	viability of HS-5 cells [9]	MDA concentration in the medium [10]	PC concentration in the medium [10]	MDA concentration in the medium [11]	PC concentration in the medium [11]	number of cells in the G0/G1 phase [13]	further results
Dichlorido(η^6-p-cymene)(3,4-dimethylphenylhydrazine-κN)ruthenium(II) [complex 1]	No changes	1.05	-6.76 kcal/mol	1.10	-7.46 kcal/mol	1.21	-8.17 kcal/mol	35.8 kcal/mol	590 J mol^−1 K^−1	No changes	100 µM	75 µM	monoexponential decrease in absorbance due to the hydrolysis	0.73 ± 0.02%	did not affect the viability	significantly reduced	increased	reduces	reduces MDA concentration but not PC	significantly decreased	MMP9 activity ([1]; MDA-MB-231, 75 µM complex 1, after 48 h, compared to control and 24 h treatment (p < 0.01)): significantly lower; change in Gibbs binding energy, range over the examined temperatures ([3]; 27-37 °C): −28.3 to −34.2 kJ mol^−1; Ihf/Ilf parameter (amplitude ratio of high-field and low-field peaks) ([8]; [HSA]:[Ru-complex] 1:0.5 to 1:4, qualitative): more pronounced increase; MMP9 activity ([12]; MIA PaCa-2, 100 µM complex 1, after 48 h, compared to control and 24 h treatment (p < 0.05)): significantly lower; number of cells in the S phase [13]: increased; effect on the cell cycle [14]: did not affect
Cc1ccc(C(C)C)cc1.O=[N+]([O-])c1cccc([NH+]2[NH2+][Ru-]2[Cl])c1 (stereo not drawn) [[RuCl(η^6-p-cymene)(3-DNPH)], chlorido(η^6-p-cymene)(3-nitrophenylhydrazine-k^2N,N’)ruthenium(II)]	–	–	–	–	–	–	–	–	–	–	–	–	–	–	–	–	–	–	–	–	sign of the change in enthalpy and entropy of binding [15]: positive values
Cc1ccc(C(C)C)cc1.Cc1ccc(C(C)C)cc1.Cc1ccc(NN)cc1C.[Cl-].[Cl][Ru].[Cl][Ru][Cl] [complex 2, Chlorido(μ-chlorido)(η^6-p-cymene)(μ-3,4-dimethylphenylhydrazine-κ^2N,N′)ruthenium(II)-dimer chloride]	No changes	1.00	-6.12 kcal/mol	1.03	-6.55 kcal/mol	1.09	-6.96 kcal/mol	18.9 kcal/mol	348 J mol^−1 K^−1	No changes	50 µM	50 µM	gradual increase in absorbance	0.71 ± 0.02%	did not affect the viability	significantly reduced	decreased	increased	decreased	significantly decreased	MMP9 activity ([1]; MDA-MB-231, 50 µM complex 2, 24 and 48 h treatments): did not affect; MMP9 activity ([12]; MIA PaCa-2, 50 µM complex 2, 24 and 48 h treatments): did not affect; number of cells in the S phase [13]: increased; effect on the cell cycle [14]: did not affect
